In patent US20240217990A1 (Gilead Sciences, Inc., priority 2021, published 2024):

How the values were obtained:
TLR7 = target: T1, TLR7 (Homo sapiens, UniProt Q9NYK1); assay: TLR7 human PBMC cell-based assay (antagonist, GS-986 stimulated cytokine release); details: human PBMCs; TLR7 agonist GS-986 400 nM, 6 hours; cytokines (IL-6 and IFNα) in supernatant; read-out: TLR-7 EC50
T1 construct: Human peripheral blood mononuclear cells (PBMCs) consist of lymphocytes, monocytes and dendritic cells that express TLR7, TLR8 and TLR9; endogenous in cells; host or cells: cryopreserved human PBMCs from healthy donors
T1 sequence (Q9NYK1 27-1049): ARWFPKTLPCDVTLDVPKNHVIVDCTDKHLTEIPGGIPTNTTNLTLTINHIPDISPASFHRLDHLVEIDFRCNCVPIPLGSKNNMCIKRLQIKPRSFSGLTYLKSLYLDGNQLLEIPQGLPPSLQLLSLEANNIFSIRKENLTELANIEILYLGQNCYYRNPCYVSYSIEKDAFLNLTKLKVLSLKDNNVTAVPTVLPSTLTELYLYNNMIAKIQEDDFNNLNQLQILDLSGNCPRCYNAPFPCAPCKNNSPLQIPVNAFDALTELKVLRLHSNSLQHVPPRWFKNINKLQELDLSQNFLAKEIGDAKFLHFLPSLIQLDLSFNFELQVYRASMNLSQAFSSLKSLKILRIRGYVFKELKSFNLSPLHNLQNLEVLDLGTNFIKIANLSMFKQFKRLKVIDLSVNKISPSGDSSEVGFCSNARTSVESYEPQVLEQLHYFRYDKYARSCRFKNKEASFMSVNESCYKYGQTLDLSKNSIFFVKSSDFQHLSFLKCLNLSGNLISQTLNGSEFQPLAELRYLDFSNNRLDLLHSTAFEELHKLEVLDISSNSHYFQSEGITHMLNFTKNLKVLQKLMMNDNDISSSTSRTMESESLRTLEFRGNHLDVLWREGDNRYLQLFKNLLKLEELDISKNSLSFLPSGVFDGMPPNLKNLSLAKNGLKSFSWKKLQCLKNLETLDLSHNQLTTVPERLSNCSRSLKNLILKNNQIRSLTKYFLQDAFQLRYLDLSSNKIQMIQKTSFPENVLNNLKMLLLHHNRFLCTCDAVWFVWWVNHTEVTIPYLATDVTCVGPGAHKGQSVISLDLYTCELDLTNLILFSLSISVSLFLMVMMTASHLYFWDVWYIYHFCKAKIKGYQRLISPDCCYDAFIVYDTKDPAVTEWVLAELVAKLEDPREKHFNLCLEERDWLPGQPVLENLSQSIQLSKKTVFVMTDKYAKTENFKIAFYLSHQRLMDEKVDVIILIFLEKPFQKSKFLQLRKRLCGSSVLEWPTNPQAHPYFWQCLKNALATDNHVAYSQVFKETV
How it was run: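 Cryopreserved healthy-donor PBMCs (100,000/well, RPMI-1640 + 10% FBS) pre-incubated 1 h at 37 °C with antagonist (10-point dose response, quadruplicate), then stimulated 6 h with GS-986 at 400 nM final. Supernatant IL-6 and IFNα measured by electrochemiluminescence immunoassay; EC50 from sigmoidal fit.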

TLR8 = target: T2, TLR8 (Homo sapiens, UniProt Q9NR97); assay: TLR8 human PBMC cell-based assay (antagonist, Compound A stimulated cytokine release); details: human PBMCs; TLR8 agonist Compound A 800 nM, 6 hours; cytokines (TNFa and IL 12p40) in supernatant; read-out: TLR-8 EC50
T2 construct: Human peripheral blood mononuclear cells (PBMCs) consist of lymphocytes, monocytes and dendritic cells that express TLR7, TLR8 and TLR9; endogenous in cells; host or cells: cryopreserved human PBMCs from healthy donors
T2 sequence (Q9NR97 27-1041): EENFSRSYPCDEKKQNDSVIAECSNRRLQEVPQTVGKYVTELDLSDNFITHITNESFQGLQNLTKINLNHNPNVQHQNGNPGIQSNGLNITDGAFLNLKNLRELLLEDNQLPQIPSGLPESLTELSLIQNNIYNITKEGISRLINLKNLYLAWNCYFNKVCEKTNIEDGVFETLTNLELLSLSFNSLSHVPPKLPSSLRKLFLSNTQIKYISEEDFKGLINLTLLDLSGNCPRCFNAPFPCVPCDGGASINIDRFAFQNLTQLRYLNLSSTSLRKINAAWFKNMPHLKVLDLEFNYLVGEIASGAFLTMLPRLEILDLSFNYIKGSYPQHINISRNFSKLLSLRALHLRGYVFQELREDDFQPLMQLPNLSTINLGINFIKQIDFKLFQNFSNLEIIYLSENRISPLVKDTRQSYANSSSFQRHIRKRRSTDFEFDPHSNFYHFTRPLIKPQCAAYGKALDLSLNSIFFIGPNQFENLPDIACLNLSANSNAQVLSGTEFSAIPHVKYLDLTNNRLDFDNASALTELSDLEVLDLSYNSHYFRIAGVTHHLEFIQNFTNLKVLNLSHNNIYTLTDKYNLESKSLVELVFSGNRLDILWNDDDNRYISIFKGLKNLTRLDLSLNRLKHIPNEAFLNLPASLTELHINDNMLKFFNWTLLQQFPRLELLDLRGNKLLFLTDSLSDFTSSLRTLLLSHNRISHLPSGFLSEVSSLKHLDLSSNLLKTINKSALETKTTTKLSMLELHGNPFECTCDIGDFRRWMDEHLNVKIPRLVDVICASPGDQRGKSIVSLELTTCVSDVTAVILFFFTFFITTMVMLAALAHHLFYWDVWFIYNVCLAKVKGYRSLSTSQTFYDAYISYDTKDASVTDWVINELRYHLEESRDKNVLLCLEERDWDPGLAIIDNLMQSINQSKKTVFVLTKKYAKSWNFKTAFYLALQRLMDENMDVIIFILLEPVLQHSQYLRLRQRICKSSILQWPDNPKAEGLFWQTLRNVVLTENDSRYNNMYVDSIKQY
How it was run: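 Cryopreserved donor PBMCs (100,000/well, RPMI + 10% FBS) were preincubated 1 h with antagonist (10-point dose response, quadruplicate), then stimulated with Compound A (800 nM final) for 6 h at 37 °C. TNFa and IL-12p40 in supernatants were measured by electrochemiluminescence; sigmoidal fits gave EC50.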

Row | Structure (SMILES) | EC50 (TLR7) | EC50 (TLR8)
1 | Cc1c(-c2[nH]c3cc(C4CCN(CC(N)=O)CC4)sc3c2C(C)C)ccc2nn(C)c(=O)n12 [Example 286] | > 1000 nM | 172 nM
2 | Cc1cc(-c2[nH]c3cc(C4CCC5CN(CC(N)=O)CCC5C4)sc3c2C(C)C)cn2ncnc12 (centres unmarked) [Example 287] | 0.56 nM | 5.31 nM
3 | Cc1cc(-c2[nH]c3cc(C4CC5CCC4CN5CC(N)=O)sc3c2C(C)C)cn2ncnc12 (centres unmarked) [Example 288] | 0.76 nM | 6.45 nM
4 | Cc1cc(-c2[nH]c3cc(C4CCNCC4(C)C)sc3c2C(C)C)cn2ncnc12 (centres unmarked) [Example 293] | 0.82 nM | 5.56 nM
5 | Cc1cc(-c2[nH]c3cc(C4CC(C)(C)NC(C)(C)C4)sc3c2C(C)C)cn2ncnc12 [Example 294] | 49.5 nM | 19.5 nM
6 | Cc1cc(-c2[nH]c3cc(C4CCNC5(CCC5)C4)sc3c2C(C)C)cn2ncnc12 (centres unmarked) [Example 296] | 3.76 nM | 8.2 nM
7 | Cc1cc(-c2[nH]c3cc(C4CC5CCCC(C4)N5)sc3c2C(C)C)cn2ncnc12 (centres unmarked) [Example 297] | 2.74 nM | 19.5 nM
8 | Cc1cc(-c2[nH]c3cc(C4CCN(CC(N)=O)CC4(C)C)sc3c2C(C)C)cn2ncnc12 (centres unmarked) [Example 298] | 4.02 nM | 17.7 nM
9 | Cc1cc(-c2[nH]c3cc(C4CC5CCC(C4)N5CC(N)=O)sc3c2C(C)C)cn2ncnc12 (centres unmarked) [Example 299] | 0.56 nM | 10.4 nM
10 | Cc1cc(-c2[nH]c3cc(C4CCN(CC(N)=O)C5(CCC5)C4)sc3c2C(C)C)cn2ncnc12 (centres unmarked) [Example 301] | 52 nM | 217 nM
11 | Cc1cc(-c2[nH]c3cc(C4CC5CCCC(C4)N5CC(N)=O)sc3c2C(C)C)cn2ncnc12 (centres unmarked) [Example 302] | 11.9 nM | 54 nM
12 | Cc1cc(-c2[nH]c3cc(C4CC4C(=O)N4CCNCC4)sc3c2C(C)C)cn2ncnc12 (centres unmarked) [Example 303] | 0.44 nM | 3.52 nM
13 | Cc1cc(-c2[nH]c3cc(C4CC5(CCN(CC(N)=O)CC5)C4)sc3c2C(C)C)cn2ncnc12 [Example 304] | 0.5 nM | 2.06 nM
14 | CC(C)c1c(-c2cc(C(F)(F)F)c3ncnn3c2)[nH]c2cc(C(=O)N3CCNCC3)sc12 [Example 305] | 2.36 nM | 5.14 nM
15 | Cc1cc(-c2[nH]c3cc(C4CC4C(=O)N4CCN(CCO)CC4)sc3c2C(C)C)cn2ncnc12 (centres unmarked) [Example 306] | 22.7 nM | 25 nM
16 | Cc1cc(-c2[nH]c3cc(C4C5CCC4CN(CC(N)=O)C5)sc3c2C(C)C)cn2ncnc12 (centres unmarked) [Example 309, 2-(8-(6-isopropyl-5-(8-methyl-[1,2,4]triazolo[1,5-a]pyridin-6-yl)-4H-thieno[3,2-b]pyrrol-2-yl)-3-azabicyclo[3.2.1]octan-3-yl)acetamide] | 0.95 nM | 17.1 nM

Second part, the compound after the results:

Row | EC50 (TLR7) | EC50 (TLR8) | Structure (SMILES)
17 | 0.23 nM | 14.2 nM | Cc1cc(-c2[nH]c3cc(C4CCC5(CC4)CN(C(=O)[C@H]4COCCN4)C5)sc3c2C(C)C)cn2ncnc12 [Example 284]
18 | 0.34 nM | 15.2 nM | Cc1cc(-c2[nH]c3cc(C4CCC5(CC4)CN(C(=O)[C@@H]4COCCN4)C5)sc3c2C(C)C)cn2ncnc12 [Example 285]
19 | 0.19 nM | 5.93 nM | Cc1cc(-c2[nH]c3cc(C4CC5CN(CC(N)=O)CC5C4)sc3c2C(C)C)cn2ncnc12 (centres unmarked) [Example 289]
20 | 0.43 nM | 17.9 nM | Cc1cc(-c2[nH]c3cc(C4CCC5(CC4)CCN(CC(N)=O)CC5)sc3c2C(C)C)cn2ncnc12 [Example 290]
21 | 0.37 nM | 6.11 nM | Cc1cc(-c2[nH]c3cc(C4CCN(C(=O)[C@@H]5COCCN5)CC4)sc3c2C(C)C)cn2ncnc12 [Example 291]
22 | 0.3 nM | 7.93 nM | Cc1cc(-c2[nH]c3cc(C4CCN(C(=O)[C@H]5COCCN5)CC4)sc3c2C(C)C)cn2ncnc12 [Example 292]
23 | 0.31 nM | 11.2 nM | Cc1cc(-c2[nH]c3cc(C4CCC(C(=O)N5CCNCC5)CC4)sc3c2C(C)C)cn2ncnc12 (centres unmarked) [Example 300]
24 | 0.09 nM | 7.49 nM | Cc1cc(-c2[nH]c3cc([C@@H]4C[C@H]5CC[C@@H](C4)N5)sc3c2C(C)C)cn2ncnc12 [Example 307, 2-((1R,3s,5S)-8-azabicyclo[3.2.1]octan-3-yl)-6-isopropyl-5-(8-methyl-[1,2,4]triazolo[1,5-a]pyridin-6-yl)-4H-thieno[3,2-b]pyrrole]
25 | 0.28 nM | 3.46 nM | Cc1cc(-c2[nH]c3cc(C4CC5(CCNCC5)C4)sc3c2C(C)C)cn2ncnc12 [Example 308]
